Measured values published in patent publication US20060160070A1, “Association-based epitome design” (Microsoft Corporation, priority 2004, published 2006).

Tests used:
[1] = target: T1, HLA B*0801 (Homo sapiens, UniProt P01889, A93T/A95T/D138N/E176V/E187T/K202T/Q94N/R180D/S35A/V36M/Y33D/Y91F); experiment: Multi-parametric analysis iScore; format: binding; design: scale not given here; settings: index integrating t1/2 and ED50
T1 construct: purchased
Procedure: (§1) Multi-parametric analysis was performed to integrate the half-life (t½) and ED50 parameters in an index (iScore). The iScore (Table 13) reflects the capability of a peptide to reconstitute with MHC molecules in a stable complex, defining its overall level of binding.

[2] = target: T2, HLA B*0702 (Homo sapiens, UniProt P01889); experiment: Multi-parametric analysis iScore; format: binding; design: scale not given here; settings: index integrating t1/2 and ED50
T2 construct: purchased
Procedure: as §1

[3] = target: T3, HLA A*0301 (Homo sapiens, UniProt P04439); experiment: Multi-parametric analysis iScore; format: binding; design: scale not given here; settings: index integrating t1/2 and ED50
T3 construct: purchased
Procedure: as §1

[4] = target: T4, HLA A*1101 (Homo sapiens, UniProt P04439, A114D/D185E/E176A/F33Y/L180Q/S129P/T187R); experiment: Multi-parametric analysis iScore; format: binding; design: scale not given here; settings: index integrating t1/2 and ED50
T4 construct: purchased
Procedure: as §1

[5] = target: T5, HLA B*1501 (Homo sapiens, UniProt P01889, A329T/A93T/A95T/C349S/D201E/D98Y/E187L/E204Q/E69M/E70A/K202T/N87E/Q94N/R155S/R180W/S121R/S35A/S48A/V306I/V36M/Y140S/Y91S); experiment: Multi-parametric analysis iScore; format: binding; design: scale not given here; settings: index integrating t1/2 and ED50
T5 construct: purchased
Procedure: as §1

[6] = target: T6, HLA A*2402 (Homo sapiens, UniProt P04439, D101N/D140Y/D185E/E176V/E190D/F33S/G103R/G107R/I119L/I121M/I306V/K335N/L105A/L180Q/L300P/N151K/N90K/Q86E/Q94H/R106L/R138H/R89G/T104I/T345S/V100E/W191G/Y123F); experiment: Multi-parametric analysis iScore; format: binding; design: scale not given here; settings: index integrating t1/2 and ED50
Procedure: as §1

[7] = target: T7, HLA A*0201 (Homo sapiens, UniProt P04439, D140Y/D185E/D98H/E176V/E277Q/G131W/G231S/I119V/I121R/I166T/I218V/L300P/L318F/N151K/N90K/P208A/P217A/Q86G/Q94H/R138H/R169H/T345S); experiment: Multi-parametric analysis iScore; format: binding; design: scale not given here; settings: index integrating t1/2 and ED50
Procedure: as §1

[8] = target: T8, HLA A*0101 (Homo sapiens, UniProt P04439, A114D/A174V/A182V/D101N/D185E/E176A/E190D/L180R/Q94H/R68K/S129P/T187R/V100A/V91M/W191G); experiment: Multi-parametric analysis iScore; format: binding; design: scale not given here; settings: index integrating t1/2 and ED50
T8 construct: purchased
Procedure: as §1

[9] = target: T1, HLA B*0801; experiment: ITOPIA off-rate assay; format: binding; settings: 37° C., one-phase exponential decay
Procedure: (§2) Peptide binding, off-rate and affinity were measured according to the protocols described in the ITOPIA Epitope Discovery System Customer Guide. To conduct the experiments, ninety-six (96) micro-titer plates coated with MHC molecules representing the HLA alleles listed in Table 9 were used to identify candidate peptides. Determinations were performed in duplicate using an ELISA plate reader. The peptide binding assay used measures the ability of individual peptides to bind to the HLA molecules under standardized optimal binding conditions. The assay was performed for all the test peptides across the selected HLA alleles. The test peptides identified as “binders” were characterized further in terms of affinity and dissociation experiments. The off-rate assay used evaluates the dissociation of previously bound peptide at defined time points (expressed as the t1/2 value). The affinity assay used measures the relative binding affinities for the MHC molecules determined by incubating candidate peptides identified in the initial peptide binding assay at increasing concentrations (expressed as quantity of peptide needed to achieve 50% binding or ED50 value).
(§3) The peptides initially identified as binders were evaluated for stability based on their ability to remain bound to MHC molecules at 37° C. at time points 0, 0.5, 1, 1.5, 2, 4, 6 and 8 hours. […] The values obtained for each time point (in duplicate) are expressed (Table 11) as a percentage of the positive control. To calculate the t1/2 and goodness-of-fit, as measured by r^2, for each peptide, a one-phase exponential decay curve, with a plateau given equal to 0, was generated using […] PRISM software.

[10] = target: T2, HLA B*0702; experiment: ITOPIA off-rate assay; format: binding; settings: 37° C., one-phase exponential decay
Procedure: as §2, §3

[11] = target: T1, HLA B*0801; experiment: ITOPIA peptide binding assay; settings: 1.11×10^−4M of peptide
Procedure: as §2
(§4) The binding of the test peptides (Table 8) to the HLA molecules (Table 9) was performed at a concentration of 1.11×10^−4M of peptide under optimal, standardized test conditions. A control peptide was run in parallel on the same plate and at the same concentration as the test peptides. […] The level of binding is expressed as a percent of positive control peptide binding for each allele.

[12] = target: T2, HLA B*0702; experiment: ITOPIA peptide binding assay; settings: 1.11×10^−4M of peptide
Procedure: as §2, §4

[13] = target: T3, HLA A*0301; experiment: ITOPIA peptide binding assay; settings: 1.11×10^−4M of peptide
Procedure: as §2, §4

[14] = target: T4, HLA A*1101; experiment: ITOPIA peptide binding assay; settings: 1.11×10^−4M of peptide
Procedure: as §2, §4

[15] = target: T5, HLA B*1501; experiment: ITOPIA peptide binding assay; settings: 1.11×10^−4M of peptide
Procedure: as §2, §4

[16] = target: T6, HLA A*2402; experiment: ITOPIA peptide binding assay; settings: 1.11×10^−4M of peptide
Procedure: as §2, §4

[17] = target: T7, HLA A*0201; experiment: ITOPIA peptide binding assay; settings: 1.11×10^−4M of peptide
Procedure: as §2, §4

[18] = target: T8, HLA A*0101; experiment: ITOPIA peptide binding assay; settings: 1.11×10^−4M of peptide
Procedure: as §2, §4

[19] = target: T6, HLA A*2402; experiment: ITOPIA off-rate assay; format: binding; settings: 37° C., one-phase exponential decay
Procedure: as §2, §3

[20] = target: T5, HLA B*1501; experiment: ITOPIA off-rate assay; format: binding; settings: 37° C., one-phase exponential decay
Procedure: as §2, §3

Row | Sequence | iScore [1] | iScore [2] | iScore [3] | iScore [4] | iScore [5] | iScore [6] | iScore [7] | iScore [8] | B*0801 t1/2 [9] [h] | B*0702 t1/2 [10] [h] | level of binding, percent of positive control peptide binding [11] | level of binding, percent of positive control peptide binding [12] | level of binding, percent of positive control peptide binding [13] | level of binding, percent of positive control peptide binding [14] | level of binding, percent of positive control peptide binding [15] | level of binding, percent of positive control peptide binding [16] | level of binding, percent of positive control peptide binding [17] | level of binding, percent of positive control peptide binding [18] | A*2402 t1/2 [19] [h] | B*1501 t1/2 [20] [h]
1 | FPRIWLHGL [compound 152] | 0.189 | 0.421 | 0 | 0 | 0 | 0 | 0 | 0 | 1.8 | 1.1 | 39% of positive control | 132% of positive control | 0% of positive control | 0% of positive control | 3% of positive control | 41% of positive control | 9% of positive control | 0% of positive control | – | –
2 | RGRQKVVSI [compound 153] | 0.165 | 0.271 | 0 | 0 | 0 | 0.050 | 0 | 0 | 1.2 | 1.3 | 71% of positive control | 88% of positive control | 0% of positive control | 6% of positive control | 7% of positive control | 29% of positive control | 6% of positive control | 0% of positive control | 1.8 | –
3 | RGRQKVVSL [compound 68] | 0.100 | 0.307 | 0 | 0 | 0.106 | 0 | 0 | 0 | 1.2 | 1.1 | 73% of positive control | 96% of positive control | 0% of positive control | 0% of positive control | 55% of positive control | 17% of positive control | 5% of positive control | 0% of positive control | – | 3.5
